Measured values reported in paper PMC4232510, “Identification of Functionally Important Residues of the Rat P2X4 Receptor by Alanine Scanning Mutagenesis of the Dorsal Fin and Left Flipper Domains” (PLoS ONE, 2014).
Positions count from the first letter of the chain named.

Legend:
Experiment in all cases: whole-cell patch clamp, HEK293T cells expressing mutant
Type in all cases: cell-based
Details in all cases: for relative responsiveness: 100 µM agonist 2 s, relative to ATP (100%)
rP2X4R D280A mutant = target: T1, rP2X4R D280A mutant (Rattus norvegicus, UniProt P51577, D280A)
T1 construct: expressed in transfected cells; host or cells: HEK293T
T1 sequence (P51577 1-388 D280A): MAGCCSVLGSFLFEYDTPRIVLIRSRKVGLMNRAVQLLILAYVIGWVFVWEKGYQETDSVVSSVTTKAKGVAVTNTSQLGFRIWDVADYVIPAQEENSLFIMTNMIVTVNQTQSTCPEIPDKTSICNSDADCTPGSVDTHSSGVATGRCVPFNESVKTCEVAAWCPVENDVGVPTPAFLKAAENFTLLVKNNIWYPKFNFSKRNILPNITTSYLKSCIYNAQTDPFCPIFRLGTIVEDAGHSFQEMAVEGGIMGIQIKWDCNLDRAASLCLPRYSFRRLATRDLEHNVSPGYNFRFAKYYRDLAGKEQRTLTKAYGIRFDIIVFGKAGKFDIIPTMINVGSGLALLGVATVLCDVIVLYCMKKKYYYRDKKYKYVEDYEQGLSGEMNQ
Procedure: (§1) To express the recombinant channels, we used human embryonic kidney (HEK) 293T cells (American Type Culture Collection, Rockville, MD, USA) grown in Dulbecco modified Eagle’s medium (Thermo Fisher Scientific, Waltham, MA) supplemented with 10% fetal bovine serum (Sigma-Aldrich, St Louis, MO), 50 U/ml penicillin and 50 µg/ml streptomycin (both Thermo Fisher Scientific, Waltham, MA) in a humidified 5% CO2 and 95% air at 37°C. Cells were cultured in 75 cm^2 plastic culture flasks (NUNC, Rochester, NY) for 36–72 hours until reaching 80–95% confluence. Before the day of transfection, the cells were plated on 35 mm culture dishes (Sarstedt, Newton, NC) and incubated at 37°C for at least 24 h. Transfection was done using 2 µg of either WT or mutant receptor DNA with 2 µl of JetPrime reagent in 2 ml of Dulbecco modified Eagle’s medium, according to manufacturer’s instructions (PolyPlus-transfection, Illkirch, France). Transfected cells were identified by the fluorescence signal of EGFP using the Olympus IX71 inverted research microscope with fluorescence illuminators (Model IX71; Olympus, Melville, NY).
(§2) cDNAs encoding the sequences of the rP2X4 and mutated subunits were subcloned into the pIRES2-EGFP vector (Clontech, Mountain View, CA, USA). To generate the mutants, oligonucleotides (synthesized and provided by VBC-Genomics, Vienna, Austria or Sigma Aldrich) containing specific mutagenesis mismatches were introduced into the rP2X4/pIRES2-EGFP template using PfU Ultra DNA polymerase (Thermo Fisher Scientific). A High-Speed Plasmid Mini Kit (Geneaid, Taipei City, Taiwan) was used to isolate the plasmids for transfection. Dye terminator cycle sequencing (ABI PRISM 3100, Applied Biosystems, Foster City, CA) was used to identify and verify the presence of the mutations. The sequencing was performed by the DNA Sequencing Laboratory, Institute of Microbiology, ASCR, Prague.
(§3) ATP-induced currents were recorded from whole cells clamped to −60 mV using an Axopatch 200B patch-clamp amplifier (Axon Instruments, Union City, CA). The recordings were captured and stored using the Digidata 1322A and pClamp9 software package (Axon Instruments). During the experiments, the cell culture was perfused with a bath solution containing: 142 mM NaCl, 3 mM KCl, 2 mM CaCl2, 1 mM MgCl2, 10 mM 4-(2-Hydroxyethyl)piperazine-1-ethanesulfonic acid (HEPES) and 10 mM D-glucose, adjusted to pH 7.3 with 1 M NaOH. The patch electrodes were filled with a solution containing: 154 mM CsCl, 11 mM EGTA and 10 mM HEPES, adjusted to pH 7.2 with 1.6 M CsOH. The whole-cell configuration was used to abolish the influence of natively present metabotropic receptors for ATP and we used intracellular cesium to block any kind of possible background potassium conductance. Potency of ATP was measured based on the activation of naïve (not previously stimulated) receptors using a short (2–5 s) application of various concentrations of ATP. The results are expressed as molar concentration of ATP required to produce 50% of the maximal response (EC50). One or two responses were recorded from one cell, if not otherwise stated, and responses from different cells were pooled. The maximum current amplitude (Imax) was measured in response to application of supramaximal concentrations (100–1000 µM) of ATP. Responsiveness to P2XR agonists 2-MeS-ATP, ATPγS, BzATP, and α,β-meATP, all applied in 100 µM concentration, was expressed as percentage of response in comparison to 100 µM ATP treatment for selected mutants. In all mutants, the whole cell currents were also measured in the presence of 3 µM IVM, which was dissolved in dimethyl sulfoxide, stored in stock solutions at 10 mM, and diluted to required concentrations in bath solution in the day of experiment. The control and drug containing solutions were applied via a rapid (exchange time 30–40 ms) perfusion system (RSC-200, BIOLOGIC, Claix, France). All other chemicals are from Sigma-Aldrich. […]

rP2X4R H286A mutant = target: T2, rP2X4R H286A mutant (Rattus norvegicus, UniProt P51577, H286A)
T2 construct: expressed in transfected cells; host or cells: HEK293T
T2 sequence (P51577 1-388 H286A): T1 sequence (P51577 1-388 D280A) with A280D, H286A
Procedure: as §1, §2, §3

rP2X4R L284A mutant = target: T3, rP2X4R L284A mutant (Rattus norvegicus, UniProt P51577, L284A)
T3 construct: expressed in transfected cells; host or cells: HEK293T
T3 sequence (P51577 1-388 L284A): T1 sequence (P51577 1-388 D280A) with A280D, L284A
Procedure: as §1, §2, §3

[1] = 3 µM IVM 4-6 min vs IVM-untreated
[2] = 100 µM ATP 60 s, biexponential fit
[3] = contribution of τdes2, 100 µM ATP 60 s
[4] = decay after removal of 1 or 3 µM ATP, 3 µM IVM
[5] = naïve receptors, 2–5 s application

With “2′(3′-O-(4-Benzoylbenzoyl)adenosine 5′-triphosphate [BzATP]” as the compound, how does the relative responsiveness (rP2X4R D280A mutant) read?
The relative responsiveness was 25.4±1.5%.

What about the relative responsiveness (rP2X4R H286A mutant) of the same compound?
Its relative responsiveness is 25.6±4.0%.

What about the relative responsiveness (rP2X4R L284A mutant) of the same compound?
Its relative responsiveness is 20.6±0.2 %.

How did the “Fold incr. Imax” value (rP2X4R D280A mutant; [1]) turn out when `CC[C@H](C)[C@H]1O[C@]2(CC[C@@H]1C)C[C@@H]1C[C@@H](C/C=C(\C)[C@@H](O[C@H]3C[C@H](OC)[C@@H](O[C@H]4C[C@H](OC)[C@@H](O)[C@H](C)O4)[C@H](C)O3)[C@@H](C)/C=C/C=C3\CO[C@@H]4[C@H](O)C(C)=C[C@@H](C(=O)O1)[C@]34O)O2` [IVM, ivermectin] was run?
The value was 5.1 ± 0.5 fold.

And the “Fold incr. Imax” value (rP2X4R H286A mutant; [1])?
Its value is 1.9 ± 0.3 fold.

And the “Fold incr. Imax” value (rP2X4R L284A mutant; [1])?
Its value is 1.7 ± 0.1 fold.

Which results are given for `CSc1nc(N)c2ncn([C@@H]3O[C@H](COP(=O)(O)OP(=O)(O)OP(=O)(O)O)[C@@H](O)[C@H]3O)c2n1` [2-MeS-ATP, 2-(Methylthio)adenosine 5′-triphosphate]?
relative responsiveness (rP2X4R D280A mutant): 56.3±7.8%; relative responsiveness (rP2X4R H286A mutant): 67.9±1.2%; relative responsiveness (rP2X4R L284A mutant): 69.0±3.0%

`Nc1ncnc2c1ncn2[C@@H]1O[C@H](CO[P@](=O)(O)O[P@](=O)(O)O[P@@](=O)(O)S)[C@@H](O)[C@H]1O` [ATPγS, Adenosine 5′-(γ-thio)triphosphate] was tested. Which relative responsiveness (rP2X4R D280A mutant) did it give?
The relative responsiveness was 55.7±3.8%.

And the relative responsiveness (rP2X4R H286A mutant)?
The relative responsiveness was 39.8±6.2%.

And the relative responsiveness (rP2X4R L284A mutant)?
Its relative responsiveness is 32.4±8.2%.

With `Nc1ncnc2c1ncn2[C@@H]1O[C@H](COP(=O)(O)OP(=O)(O)OP(=O)(O)O)[C@@H](O)[C@H]1O` [ATP] as the compound, how does the “EC50 rightward shift compared to WT” value (rP2X4R D280A mutant) read?
Its value is “approximately 10 fold”.

What about the τdes1 (rP2X4R D280A mutant; [2]) of the same compound?
The τdes1 was 3.9 ± 1.2 s.

What about the τdes2 (rP2X4R D280A mutant; [2]) of the same compound?
Its τdes2 is 22.9 ± 7.8 s.

What about the Imax (rP2X4R D280A mutant; 100–1000 µM ATP) of the same compound?
The Imax was 0.7 ± 0.1 nA.

What about the “Imax+IVM” value (rP2X4R D280A mutant; ATP after 3 µM IVM 4-6 min) of the same compound?
Its value is 3.6 ± 0.4 nA.

What about the “A2 /(A1+A2)” value (rP2X4R D280A mutant; [3]) of the same compound?
The value was 62 ± 6%.

And the “τoff +IVM” value (rP2X4R D280A mutant; [4])?
Its value is 5.5 ± 0.3 s.

And the EC50 (rP2X4R D280A mutant; [5])?
Its EC50 is 26 ± 8.2 µM.

What about the τdes (rP2X4R D280A mutant; weighted, 100 µM ATP 60 s) of the same compound?
The τdes was 15 ± 3.7 s.

And the τdes1 (rP2X4R H286A mutant; [2])?
Its τdes1 is 4.0 ± 0.8 s.

What about the τdes2 (rP2X4R H286A mutant; [2]) of the same compound?
Its τdes2 is 16.2 ± 1.6 s.

And the “Imax+IVM” value (rP2X4R H286A mutant; ATP after 3 µM IVM 4-6 min)?
Its value is 4.2 ± 0.7 nA.

And the “A2 /(A1+A2)” value (rP2X4R H286A mutant; [3])?
Its value is 55 ± 5%.

And the “τoff +IVM” value (rP2X4R H286A mutant; [4])?
Its value is 12 ± 2.1 s.

What about the EC50 (rP2X4R H286A mutant; [5]) of the same compound?
The EC50 was 20 ± 2.9 µM.

What about the τdes (rP2X4R H286A mutant; weighted, 100 µM ATP 60 s) of the same compound?
Its τdes is 11 ± 1.4 s.

What about the τdes1 (rP2X4R L284A mutant; [2]) of the same compound?
Its τdes1 is 0.8 ± 0.1 s.

And the τdes2 (rP2X4R L284A mutant; [2])?
The τdes2 was 7.2 ± 1.0 s.

And the Imax (rP2X4R L284A mutant; 100–1000 µM ATP)?
Its Imax is 2.4 ± 0.3 nA.

And the “Imax+IVM” value (rP2X4R L284A mutant; ATP after 3 µM IVM 4-6 min)?
The value was 4.1 ± 0.3 nA.

What about the “A2 /(A1+A2)” value (rP2X4R L284A mutant; [3]) of the same compound?
The value was 60 ± 5%.

What about the “τoff +IVM” value (rP2X4R L284A mutant; [4]) of the same compound?
Its value is 28 ± 2.3 s.

What about the EC50 (rP2X4R L284A mutant; [5]) of the same compound?
The EC50 was 3.9 ± 1.9 µM.

And the τdes (rP2X4R L284A mutant; weighted, 100 µM ATP 60 s)?
The τdes was 4.8 ± 0.9 s.

What does the source list for `Nc1ncnc2c1ncn2C1OC(COP(=O)(O)CP(=O)(O)OP(=O)(O)O)C(O)C1O` (stereo not drawn) [α,β-meATP, α,β-methyleneadenosine 5′-triphosphate]?
relative responsiveness (rP2X4R D280A mutant): 33.1±6.0%; relative responsiveness (rP2X4R H286A mutant): 30.0±6.8%; relative responsiveness (rP2X4R L284A mutant): 22.2±3.9%
